Data taken from article PMC5448350, “2-Pentadecyl-2-Oxazoline, the Oxazoline of Pea, Modulates Carrageenan-Induced Acute Inflammation” (Frontiers in Pharmacology, 2017).

Biological target: T1, N-acylethanolamine-hydrolyzing acid amidase (NAAA) (Homo sapiens, UniProt Q02083)
T1 construct: human recombinant NAAA stably expressed in HEK-293 cells (12000 × g membrane fraction)
T1 sequence (Q02083 29-125): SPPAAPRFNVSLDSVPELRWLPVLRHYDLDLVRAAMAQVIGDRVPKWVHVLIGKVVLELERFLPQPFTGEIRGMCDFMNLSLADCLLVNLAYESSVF
T1 sequence (Q02083 126-359): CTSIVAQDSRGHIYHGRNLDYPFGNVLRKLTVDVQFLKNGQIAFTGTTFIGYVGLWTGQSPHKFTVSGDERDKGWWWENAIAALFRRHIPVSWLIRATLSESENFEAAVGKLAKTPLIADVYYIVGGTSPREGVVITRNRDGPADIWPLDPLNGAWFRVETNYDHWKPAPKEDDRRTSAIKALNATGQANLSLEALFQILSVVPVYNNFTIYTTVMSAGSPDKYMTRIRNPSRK
Test: [3H]-PEA hydrolysis assay in membranes of HEK-293 cells overexpressing human NAAA, pH […]
Format: cell-based
Details: HEK293

inhibition at 50 µM: 75%
Structure (SMILES): CCCCCCCCCCCCCCCC1=NCCO1 [PEA-OXA, 2-Pentadecyl-2-oxazoline]
